Measured values as given in patent US5866611A, “Therapeutic amines” (Zeneca Limited, priority 1993, dated 1999).
Structures can show the parent of a compound that is named as a salt.

Tests used:
Squalene synthase = assay: Inhibition of Squalene synthase; assay type: biochemical; details: rat liver microsomal protein, 15 min, 37° C.
Description: (a) Inhibition of Squalene synthase
In this test, the ability of a compound to prevent the formation of squalene from a radioactive substrate (tritiated farnesyl pyrophosphate) is assessed.
The test compound is incubated at a concentration of 25 micromolar in 200 μl of a buffered solution containing potassium phosphate (50 mM), MgCl2 (4.95 mM), KF (9.9 mM), NADPH (0.9 mM) and rat liver microsomal protein (20 μg). Rat liver microsomes are prepared by the method described in published European Patent Application No. 324,421 and stored in liquid nitrogen prior to assay. Assay vials are kept at 37° C. throughout the incubation.
The reaction is started with the addition of the substrate (1-[^3 H]-farnesyl pyrophosphate), final concentration […], and stopped after 15 minutes reaction time with the addition of 50 μl of 4% KOH. The reaction products are separated from unreacted substrate after application to a C-18 octadecyl 1ccBond column (Analytichem Int product No. 617101). An aqueous fraction is eluted with 250 μl of 0.1M KOH. Squalene is then eluted with 1.0 ml 10% ethylacetate in hexane and radioactivity determined. The difference in radioactivity in the presence and absence of the test compound is used to determine the level of inhibition. […] The IC50 can then be determined from a plot of percentage inhibition against concentration of test compound.

[1] = test system: de novo hepatic cholesterol synthesis; assay: Acute rat cholesterol synthesis assay; details: acute in vivo, female rats, 14C-acetate ip, plasma cholesterol specific radioactivity, route for this compound not given
Description: (b) Acute rat cholesterol synthesis assay.
This is an acute in vivo test in the rat to measure de novo hepatic cholesterol synthesis from exogenously administered ^14 C-acetate.
Female rats (35-55 g) are housed in reverse lighting conditions (red light from 0200 h-1400 h) for a period of about 2 weeks prior to test. Animals are allowed free access to chow and drinking water throughout this period. At test, animals should weigh 125-150 g.
Test compounds may be administered by oral gavage, dissolved or suspended in 0.5% polysorbate, or by ip or iv dosing. Control animals receive vehicle alone. After 1 hour the rats are injected ip with 25 μCi [2-^14 C]-acetate (NEN DUPONT. specific activity, 45-60mCi/mmol NEC-085H, or AMERSHAN specific activity, 50-60 mCi/mmol CFA 14) in a volume of 0.25 ml saline (100 μCi/ml). After a further hour, rats are terminally anaesthetised with halothane and a blood sample obtained from the abdominal vena cava.
1ml of plasma is lyophilised and then saponified in 2ml ethanolic KOH (1 part 33% KOH, 9 parts ethanol) at […] for 2 hours. After addition of an equal quantity of water, non-saponifiable lipids are extracted with two 5ml volumes of hexane. The hexane extracts are evaporated to dryness and the residues dissolved in ethanol to determine cholesterol specific radioactivity. ED50 values can be determined in the standard way.

| Compound | inhibition of squalene synthase (Squalene synthase; at a concentration of 25 μM) | inhibition of squalene synthase (Squalene synthase; at 2.5 μM) | ED50 [1] [mg/kg] |
| --- | --- | --- | --- |
| CCCCOc1ccc(OCCCNC(C)C)c(CCC)c1 [Example 2, N-isopropyl-3-(4-butoxy-2-propylphenoxy)propylamine] | about 74% | – | – |
| CCCc1cc(NC(C)=O)ccc1OCCCNC(C)C [Example 95, 3-n-propyl-4-(3-[N-isopropylamino]propoxy)-acetanilide hydrochloride] | – | about 86% | 27 |
